The record followed here is patent US6987114B1, “Antiviral pyrimidinedione derivatives and process for the preparation thereof” (Samjin Pharmaceutical Co., Ltd, priority 1999, dated 2006).

In brackets after ≈: the same amount, converted by molar mass. Like-named read-outs stand apart in the source and are kept apart here.

A word on the melting point: it is the temperature of the solid-liquid transition.

Data set [1] deals with HIV. Description: microbe, parasite or virus in culture. It counts as cell-based. Here is the method: Anti-HIV activity tests in vitro of the compounds according to the present invention were performed as described in J. Med. Chem, 34, 357, 1991. Inhibition by the compounds of virus-induced cytotoxic effect in MT-4 cells was measured as follows.
(§1) MT-4 cells were suspended in culture media at 2.5×10^5 cells/ml and infected with 1000 CCID50 (50% cell culture infective dose) of HIV. Immediately after virus infection, 100 μl of cell suspension was brought into each well of a flat-bottomed microtitray containing various concentrations of the test compounds. After 4 or 5 days incubation at 37° C., efficacy of the compounds was determined by the MTT method. Cytotoxicity of the compounds was assessed in parallel with their antiviral activity, based on viability of mock-infected host cells as determined by the MTT method.

Data set [2] relates to mock-infected MT-4 cells. As to the kind of experiment: Cytotoxicity based on viability of mock-infected host cells (MTT method). It counts as cell-based. The conditions noted are these: mock-infected MT-4 cells, MTT method, 4 or 5 days at 37° C. Here is the method: as §1
(In general: Tetrazolium assays rely on reduction of a dye to a coloured formazan, in cell work by metabolically active cells.)

Where [3] appears, read: Human immunodeficiency virus 1, MT4, HIV-infected MT-4 cells, MTT method, 4 or 5 days at 37° C., read-out: ED50 (the source's name).
The mark [4] stands for this setting: Human immunodeficiency virus 1, MT4, read-out: ED50.

Compound `Cc1cc(C)cc(C(=O)c2c(C(C)C)c(=O)[nH]c(=O)n2Cc2cccc(Br)n2)c1` [Example 130, 1-(2-Bromopyridin-6-ylmethyl)-5-isopropyl-6-(3,5-dimethyl-benzoyl)-2,4-pyrimidinedione] came in with a melting point of 218 to 220 °C. Also, in data set [1] (setting [3]), the EC50 was 0.015 µg/mL (≈ 0.0329 µM). The compound also had a CD50 in data set [2] of 8.85 µg/mL.

For `CCc1c(Oc2cc(C)cc(C)c2)n(Cc2ccccc2C#N)c(=O)[nH]c1=O` [Example 39, 1-(2-Cyanobenzyl)-5-ethyl-6-(3,5-dimethylphenoxy)-2,4-pyrimidinedione], the melting point lay within 267 to 270 °C. Further, in data set [1] (setting [3]), the EC50 was 0.619 µg/mL (≈ 1.65 µM). The compound also returned a CD50 in data set [2] of 60.47 µg/mL.

For the compound `CCc1c(C(=O)c2cc(C)cc(C)c2)n(Cn2nnc3ccccc32)c(=O)[nH]c1=O` [Example 143, 1-(1H-benzotriazol-1-ylmethyl)-5-ethyl-6-(3,5-dimethylbenzoyl)-2,4-pyrimidinedione], the melting point was 226 to 229 °C. The EC50 in data set [1] (setting [3]) is 0.026 µg/mL (≈ 0.0644 µM). Besides, the CD50 in data set [2] amounted to 9.76 µg/mL.

Take `Cc1cc(C)cc(Sc2c(C(C)C)c(=O)[nH]c(=O)n2Cc2ccccc2C#N)c1` [Example 38, 1-(2-Cyanobenzyl)-5-isopropyl-6-(3,5-dimethylphenyl)-thio-2,4-pyrimidinedione]: the melting point lay within 238 to 240 °C. For the same compound, the EC50 in data set [1] (setting [3]) was 0.082 µg/mL (≈ 0.202 µM). The CD50 in data set [2] is more than 100.00 µg/mL.

`CCc1c(C(=O)c2cc(C)cc(C)c2)n(Cc2ccccc2C#N)c(=O)[nH]c1=O` [Example 41, 1-(2-Cyanobenzyl)-5-ethyl-6-(3,5-dimethylbenzoyl)-2,4-pyrimidinedione] yielded a melting point of 257 to 259 °C. Besides, the EC50 in data set [1] (setting [3]) was found to be 0.003 µg/mL (≈ 0.00774 µM). The same compound yielded a CD50 in data set [2] of 2.56 µg/mL.

For the compound `COc1cc(Cn2c(C(=O)c3cc(C)cc(C)c3)c(C(C)C)c(=O)[nH]c2=O)cc(OC)c1` [Example 60, 1-(3,5-Dimethoxybenzyl)-5-isopropyl-6-(3,5-dimethyl-benzoyl)-2,4-pyrimidinedione], the melting point lay within 220 to 222 °C. Also, the EC50 in data set [1] (setting [3]) is 0.23 µg/mL (≈ 0.527 µM). The compound further yielded a CD50 in data set [2] of 12.09 µg/mL.

As for `Cc1cc(C)cc(Sc2c(C(C)C)c(=O)[nH]c(=O)n2Cc2cccnc2)c1` [Example 116, 1-(Pyridin-3-ylmethyl)-5-isopropyl-6-(3,5-dimethylphenyl)thio-2,4-pyrimidinedione], the melting point lay in the range of 159 to 161 °C. Further, the EC50 in data set [1] (setting [4]) was 0.003 µg/mL (≈ 0.00786 µM). In addition, in data set [2], the CD50 came out at 10.09 µg/mL.

`Cc1cc(C)cc(Sc2c(C(C)C)c(=O)[nH]c(=O)n2Cc2c3ccccc3cc3ccccc23)c1` [Example 98, 1-(Anthracen-9-ylmethyl)-5-isopropyl-6-(3,5-dimethylphenyl)thio-2,4-pyrimidinedione] returned a melting point of 129 to 131 °C. In addition, the EC50 in data set [1] (setting [4]) is more than 1.75 µg/mL. This compound also yielded a CD50 in data set [2] of 1.75 µg/mL.

As for `CCc1c(Oc2cc(C)cc(C)c2)n(Cc2ccc(OC(F)(F)F)cc2)c(=O)[nH]c1=O` [Example 33, 1-(4-Trifluoromethoxybenzyl)-5-ethyl-6-(3,5-dimethyl-phenoxy)-2,4-pyrimidinedione], the melting point lay in the range of 148 to 150 °C. Besides, in data set [1] (setting [3]), the EC50 is 0.069 µg/mL (≈ 0.159 µM). The compound further displayed a CD50 in data set [2] of more than 100.00 µg/mL.

In turn, `CCc1c(Oc2cc(C)cc(C)c2)n(Cc2cccc(Cl)n2)c(=O)[nH]c1=O` [Example 123, 1-(2-Chloropyridin-6-ylmethyl)-5-ethyl-6-(3,5-dimethylphenoxy)-2,4-pyrimidinedione] registered a melting point of 199 to 201 °C. In addition, in data set [1] (setting [3]), the EC50 stood at 0.122 µg/mL (≈ 0.316 µM). In data set [2], the CD50 stood at 79.14 µg/mL.

For `CCc1c(Oc2cc(C)cc(C)c2)n(Cc2cccc(C#N)c2)c(=O)[nH]c1=O` [Example 45, 1-(3-Cyanobenzyl)-5-ethyl-6-(3,5-dimethylphenoxy)-2,4-pyrimidinedione], the melting point lay in the range of 213 to 214 °C. Also, the EC50 in data set [1] (setting [4]) was determined as 0.061 µg/mL (≈ 0.162 µM). This compound also gave a CD50 in data set [2] of more than 100.00 µg/mL.

For the compound `Cc1cc(C)cc(C(=O)c2c(C(C)C)c(=O)[nH]c(=O)n2Cc2ccc3ccccc3n2)c1` [Example 136, 1-(Quinolin-2-ylmethyl)-5-isopropyl-6-(3,5-dimethyl-benzoyl)-2,4-pyrimidinedione], the melting point is 152 to 154 °C. Further, the EC50 in data set [1] (setting [3]) turned out to be 0.0097 µg/mL (≈ 0.0227 µM). In data set [2], the CD50 stood at 8.70 µg/mL.

On to `COc1cccc(Cn2c(C(=O)c3cc(C)cc(C)c3)c(C(C)C)c(=O)[nH]c2=O)c1` [Example 30, 1-(3-Methoxybenzyl)-5-isopropyl-6-(3,5-dimethylbenzoyl)-2,4-pyrimidinedione], for which the melting point was 184 to 186 °C. The EC50 in data set [1] (setting [3]) was found to be 0.002 µg/mL (≈ 0.00492 µM). Further, in data set [2], the CD50 was 3.83 µg/mL.

Consider `CC(=O)Cn1c(Oc2cc(C)cc(C)c2)c(C(C)C)c(=O)[nH]c1=O` [Example 158, 1-(Acetonyl)-5-isopropyl-6-(3,5-dimethylphenoxy)-2,4-pyrimidinedione], for which the melting point lay within 181 to 183 °C. Also, the EC50 in data set [1] (setting [4]) turned out to be 0.0043 µg/mL (≈ 0.013 µM). The CD50 in data set [2] was more than 100.00 µg/mL.

The compound `CCc1c(C(=O)c2cc(C)cc(C)c2)n(Cc2c3ccccc3cc3ccccc23)c(=O)[nH]c1=O` [Example 101, 1-(Anthracen-9-ylmethyl)-5-ethyl-6-(3,5-dimethyl-benzoyl)-2,4-pyrimidinedione] came in with a melting point of 270 to 272 °C. In data set [1] (setting [4]), the EC50 was more than 0.94 µg/mL. The CD50 in data set [2] was determined as 0.94 µg/mL.

`CCc1c(Sc2cc(C)cc(C)c2)n(Cc2ccccc2C#N)c(=O)[nH]c1=O` [Example 37, 1-(2-Cyanobenzyl)-5-ethyl-6-(3,5-dimethylphenyl)thio-2,4-pyrimidinedione] came in with a melting point of 221 to 223 °C. The EC50 in data set [1] (setting [3]) stood at 0.043 µg/mL (≈ 0.11 µM). The CD50 in data set [2] was more than 100.00 µg/mL.

Consider `Cc1cc(C)cc(Oc2c(C(C)C)c(=O)[nH]c(=O)n2Cc2ccc3ccccc3n2)c1` [Example 134, 1-(Quinolin-2-ylmethyl)-5-isopropyl-6-(3,5-dimethyl-phenoxy)-2,4-pyrimidinedione], for which the melting point lay within 246 to 248 °C. Moreover, the EC50 in data set [1] (setting [3]) turned out to be 0.004 µg/mL (≈ 0.00963 µM). The compound further came in with a CD50 in data set [2] of 66.80 µg/mL.

`Cc1cc(C)cc(Oc2c(C(C)C)c(=O)[nH]c(=O)n2Cc2ccccc2C#N)c1` [Example 40, 1-(2-Cyanobenzyl)-5-isopropyl-6-(3,5-dimethylphenoxy)-2,4-pyrimidinedione] registered a melting point of 276 to 278 °C. Besides, the EC50 in data set [1] (setting [3]) is more than 100 µg/mL. This compound also returned a CD50 in data set [2] of more than 100.00 µg/mL.

The compound `COc1cccc(Cn2c(Oc3cc(C)cc(C)c3)c(C(C)C)c(=O)[nH]c2=O)c1` [Example 28, 1-(3-Methoxybenzyl)-5-isopropyl-6-(3,5-dimethylphenoxy)-2,4-pyrimidinedione] had a melting point of 158 to 159 °C. Moreover, in data set [1] (setting [3]), the EC50 stood at 0.006 µg/mL (≈ 0.0152 µM). Further, the CD50 in data set [2] came out at 30.60 µg/mL.

`CCc1c(Sc2cc(C)cc(C)c2)n(Cc2cccc(C#N)c2)c(=O)[nH]c1=O` [Example 43, 1-(3-Cyanobenzyl)-5-ethyl-6-(3,5-dimethylphenyl)thio-2,4-pyrimidinedione] displayed a melting point of 179 to 181 °C. For the same compound, the EC50 in data set [1] (setting [4]) is 0.015 µg/mL (≈ 0.0383 µM). In data set [2], this compound had a CD50 of 1.77 µg/mL.

`Cc1cc(C)cc(Cn2c(Sc3cc(C)cc(C)c3)c(C(C)C)c(=O)[nH]c2=O)c1` [Example 50, 1-(3,5-Dimethylbenzyl)-5-isopropyl-6-(3,5-dimethylphenyl)thio-2,4-pyrimidinedione] displayed a melting point of 164 to 166 °C. Moreover, the EC50 in data set [1] (setting [4]) is 0.015 µg/mL (≈ 0.0367 µM). The CD50 in data set [2] was 8.70 µg/mL.

In turn, `CCc1c(Oc2cc(C)cc(C)c2)n(Cc2cc(F)cc(F)c2)c(=O)[nH]c1=O` [Example 75, 1-(3,5-Difluorobenzyl)-5-ethyl-6-(3,5-dimethylphenoxy)-2,4-pyrimidinedione] came in with a melting point of 178 to 180 °C. The EC50 in data set [1] (setting [3]) was more than 14.3 µg/mL. Moreover, in data set [2], the CD50 was found to be 14.30 µg/mL.

`CCc1c(Oc2cc(C)cc(C)c2)n(Cc2cc(C(F)(F)F)cc(C(F)(F)F)c2)c(=O)[nH]c1=O` [Example 63, 1-[3,5-Bis(Trifluoromethyl)benzyl]-5-ethyl-6-(3,5-dimethyl-phenoxy)-2,4-pyrimidinedione] registered a melting point of 183 to 185 °C. In addition, the EC50 in data set [1] (setting [3]) was more than 100 µg/mL. In addition, in data set [2], the CD50 was more than 100.00 µg/mL.

Compound `CCc1c(C(=O)c2cc(C)cc(C)c2)n(Cc2cc(Br)cc(Br)c2)c(=O)[nH]c1=O` [Example 89, 1-(3,5-Dibromobenzyl)-5-ethyl-6-(3,5-dimethylbenzoyl)-2,4-pyrimidinedione] showed a melting point of 234 to 236 °C. Also, the EC50 in data set [1] (setting [4]) stood at 0.09 µg/mL (≈ 0.173 µM). The same compound yielded a CD50 in data set [2] of 8.75 µg/mL.

`CC(=O)Cn1c(C(=O)c2cc(C)cc(C)c2)c(C(C)C)c(=O)[nH]c1=O` [Example 160, 1-(Acetonyl)-5-isopropyl-6-(3,5-dimethylbenzoyl)-2,4-pyrimidinedione] came in with a melting point of 181 to 183 °C. Moreover, the EC50 in data set [1] (setting [4]) was determined as 0.0005 µg/mL (≈ 0.00146 µM). In data set [2], this compound had a CD50 of 14.0 µg/mL.

Compound `CCc1c(C(=O)c2cc(C)cc(C)c2)n(Cc2ccc(OC(F)(F)F)cc2)c(=O)[nH]c1=O` [Example 35, 1-(4-Trifluoromethoxybenzyl)-5-ethyl-6-(3,5-dimethylbenzoyl)-2,4-pyrimidinedione] registered a melting point of 155 to 157 °C. In addition, the EC50 in data set [1] (setting [3]) came to 0.004 µg/mL (≈ 0.00896 µM). In data set [2], this compound gave a CD50 of 33.83 µg/mL.
